Source: ChEMBL document CHEMBL4138123, “Design, synthesis and biological evaluation of novel pyrazolochalcones as potential modulators of PI3K/Akt/mTOR pathway and inducers of apoptosis in breast cancer cells” (Eur J Med Chem, 2017)

How the values were obtained:
Assay type in all cases: functional
SF-539 = assay: Cytotoxicity against human SF539 cells assessed as cell growth at 100 uM after 48 hrs by sulforhodamine B assay relative to control; conditions: SF-539, 48 h, read-out: Activity
UACC-62 = assay: Cytotoxicity against human UACC62 cells assessed as cell growth at 0.1 uM after 48 hrs by sulforhodamine B assay relative to control; conditions: UACC-62, 48 h, read-out: Activity
K562 [1] = assay: Cytotoxicity against human K562 cells assessed as cell growth at 100 uM after 48 hrs by sulforhodamine B assay relative to control; conditions: K562, 48 h, read-out: Activity
NCI-H460 = assay: Cytotoxicity against human NCI-H460 cells assessed as cell growth at 0.01 uM after 48 hrs by sulforhodamine B assay relative to control; conditions: NCI-H460, 48 h, read-out: Activity
ACHN = assay: Cytotoxicity against human ACHN cells assessed as cell growth at 100 uM after 48 hrs by sulforhodamine B assay relative to control; conditions: read-out: Activity
BT-549 [2] = assay: Cytotoxicity against human BT549 cells assessed as cell growth at 0.01 uM after 48 hrs by sulforhodamine B assay relative to control; conditions: BT-549, 48 h, read-out: Activity
HT-29 = assay: Cytotoxicity against human HT-29 cells assessed as cell growth at 100 uM after 48 hrs by sulforhodamine B assay relative to control; conditions: HT-29, 48 h, read-out: Activity
SNB-19 = assay: Cytotoxicity against human SNB19 cells assessed as growth inhibition after 48 hrs by sulforhodamine B assay; conditions: SNB-19, 48 h; for CC50: read-out: LC50 (the source's name)
TK-10 = assay: Cytotoxicity against human TK10 cells assessed as cell growth at 1 uM after 48 hrs by sulforhodamine B assay relative to control; conditions: TK-10, 48 h, read-out: Activity
OVCAR-8 = assay: Cytotoxicity against human OVCAR8 cells assessed as cell growth at 1 uM after 48 hrs by sulforhodamine B assay relative to control; conditions: OVCAR-8, 48 h, read-out: Activity
U-251 = assay: Cytotoxicity against human U251 cells assessed as growth inhibition after 48 hrs by sulforhodamine B assay; conditions: U-251, 48 h
IGROV-1 [3] = assay: Cytotoxicity against human IGROV1 cells assessed as cell growth at 0.01 uM after 48 hrs by sulforhodamine B assay relative to control; conditions: IGROV-1, 48 h, read-out: Activity
SK-OV-3 = assay: Cytotoxicity against human SKOV3 cells assessed as cell growth at 0.01 uM after 48 hrs by sulforhodamine B assay relative to control; conditions: SK-OV-3, 48 h, read-out: Activity
M14 = assay: Cytotoxicity against human M14 cells assessed as cell growth at 100 uM after 48 hrs by sulforhodamine B assay relative to control; conditions: M14, 48 h, read-out: Activity
K562 [4] = assay: Cytotoxicity against human K562 cells assessed as cell growth at 0.1 uM after 48 hrs by sulforhodamine B assay relative to control; conditions: K562, 48 h, read-out: Activity
OVCAR-5 = assay: Cytotoxicity against human OVCAR5 cells assessed as cell growth at 0.1 uM after 48 hrs by sulforhodamine B assay relative to control; conditions: OVCAR-5, 48 h, read-out: Activity
A549 = assay: Cytotoxicity against human A549/ATCC cells assessed as cell growth at 0.1 uM after 48 hrs by sulforhodamine B assay relative to control; conditions: A549, 48 h, read-out: Activity
HCC 2998 = assay: Cytotoxicity against human HCC2998 cells assessed as cell growth at 0.01 uM after 48 hrs by sulforhodamine B assay relative to control; conditions: HCC 2998, 48 h, read-out: Activity
COLO 205 = assay: Cytotoxicity against human COLO205 cells assessed as cell growth at 1 uM after 48 hrs by sulforhodamine B assay relative to control; conditions: COLO 205, 48 h, read-out: Activity
NCI-H23 [5] = assay: Cytotoxicity against human NCI-H23 cells assessed as cell growth at 0.1 uM after 48 hrs by sulforhodamine B assay relative to control; conditions: NCI-H23, 48 h, read-out: Activity
SF-268 = assay: Cytotoxicity against human SF268 cells assessed as cell growth at 0.1 uM after 48 hrs by sulforhodamine B assay relative to control; conditions: SF-268, 48 h, read-out: Activity
BT-549 [6] = assay: Cytotoxicity against human BT549 cells assessed as growth inhibition after 48 hrs by sulforhodamine B assay; conditions: BT-549, 48 h
DU-145 = assay: Cytotoxicity against human DU145 cells assessed as cell growth at 100 uM after 48 hrs by sulforhodamine B assay relative to control; conditions: DU-145, 48 h, read-out: Activity
SR = assay: Cytotoxicity against human SR cells assessed as cell growth at 0.01 uM after 48 hrs by sulforhodamine B assay relative to control; conditions: read-out: Activity
IGROV-1 [7] = assay: Cytotoxicity against human IGROV1 cells assessed as cell growth at 10 uM after 48 hrs by sulforhodamine B assay relative to control; conditions: IGROV-1, 48 h, read-out: Activity
786-0 = assay: Cytotoxicity against human 786-0 cells assessed as growth inhibition after 48 hrs by sulforhodamine B assay; conditions: 786-0, 48 h
IGROV-1 [8] = assay: Cytotoxicity against human IGROV1 cells assessed as cell growth at 1 uM after 48 hrs by sulforhodamine B assay relative to control; conditions: IGROV-1, 48 h, read-out: Activity
IGROV-1 [9] = assay: Cytotoxicity against human IGROV1 cells assessed as cell growth at 0.1 uM after 48 hrs by sulforhodamine B assay relative to control; conditions: IGROV-1, 48 h, read-out: Activity
RPMI-8226 [10] = assay: Cytotoxicity against human RPMI8226 cells assessed as cell growth at 1 uM after 48 hrs by sulforhodamine B assay relative to control; conditions: RPMI-8226, 48 h, read-out: Activity
PC-3 = assay: Cytotoxicity against human PC3 cells assessed as cell growth at 0.1 uM after 48 hrs by sulforhodamine B assay relative to control; conditions: PC-3, 48 h, read-out: Activity
UO-31 = assay: Cytotoxicity against human UO31 cells assessed as growth inhibition after 48 hrs by sulforhodamine B assay; conditions: UO-31, 48 h
NCI-H23 [11] = assay: Cytotoxicity against human NCI-H23 cells assessed as cell growth at 1 uM after 48 hrs by sulforhodamine B assay relative to control; conditions: NCI-H23, 48 h, read-out: Activity
SK-MEL-28 = assay: Cytotoxicity against human SK-MEL-28 cells assessed as cell growth at 100 uM after 48 hrs by sulforhodamine B assay relative to control; conditions: SK-MEL-28, 48 h, read-out: Activity
RPMI-8226 [12] = assay: Cytotoxicity against human RPMI8226 cells assessed as cell growth at 10 uM after 48 hrs by sulforhodamine B assay relative to control; conditions: RPMI-8226, 48 h, read-out: Activity
SW-620 = assay: Cytotoxicity against human SW620 cells assessed as cell growth at 0.1 uM after 48 hrs by sulforhodamine B assay relative to control; conditions: SW-620, 48 h, read-out: Activity
CCRF-CEM = assay: Cytotoxicity against human CCRF-CEM cells assessed as cell growth at 0.01 uM after 48 hrs by sulforhodamine B assay relative to control; conditions: read-out: Activity

Structure (SMILES): COc1ccc(C(=O)/C=C/c2cc(-c3ccc4c(c3)OCO4)n[nH]2)cc1OC
- growth at 100 µM (SF-539): -83%
- growth at 0.1 µM (UACC-62): 100%
- growth at 100 µM (K562 [1]): -12%
- growth at 0.01 µM (NCI-H460): 101%
- growth at 100 µM (ACHN): -4%
- growth at 0.01 µM (BT-549 [2]): 102%
- growth at 100 µM (HT-29): -44%
- TGI (SNB-19): 15.2 µM
- CC50 (SNB-19): 40.8 µM
- growth at 1 µM (TK-10): 97%
- growth at 1 µM (OVCAR-8): 89%
- LC50 (U-251): 23.8 µM
- TGI (U-251): 5.37 µM
- growth at 0.01 µM (IGROV-1 [3]): 100%
- growth at 0.01 µM (SK-OV-3): 99%
- growth at 100 µM (M14): -77%
- growth at 0.1 µM (K562 [4]): 96%
- growth at 0.1 µM (OVCAR-5): 95%
- growth at 0.1 µM (A549): 96%
- growth at 0.01 µM (HCC 2998): 98%
- growth at 1 µM (COLO 205): 101%
- growth at 0.1 µM (NCI-H23 [5]): 89%
- growth at 0.1 µM (SF-268): 94%
- GI50 (BT-549 [6]): 1.97 µM
- LC50 (concentration killing 50% of cells) (BT-549 [6]): 8.98 µM
- TGI (BT-549 [6]): 4.21 µM
- growth at 100 µM (DU-145): -97%
- growth at 0.01 µM (SR): 90%
- growth at 10 µM (IGROV-1 [7]): -4%
- LC50 (786-0): 42.3 µM
- TGI (786-0): 11.4 µM
- growth at 1 µM (IGROV-1 [8]): 93%
- growth at 0.1 µM (IGROV-1 [9]): 93%
- growth at 1 µM (RPMI-8226 [10]): 51%
- growth at 0.1 µM (PC-3): 95%
- GI50 (UO-31): 2.32 µM
- LC50 (UO-31): 34.5 µM
- TGI (UO-31): 10.1 µM
- growth at 1 µM (NCI-H23 [11]): 85%
- growth at 100 µM (SK-MEL-28): -89%
- growth at 10 µM (RPMI-8226 [12]): -20%
- growth at 0.1 µM (SW-620): 95%
- growth at 0.01 µM (CCRF-CEM): 99%

Structure (SMILES): COc1ccc(-c2cc(/C=C/C(=O)c3ccc(N)cc3)[nH]n2)cc1OC
- growth at 100 µM (SF-539): -92%
- growth at 0.1 µM (UACC-62): 94%
- growth at 100 µM (K562 [1]): -3%
- growth at 0.01 µM (NCI-H460): 101%
- growth at 100 µM (ACHN): -95%
- growth at 0.01 µM (BT-549 [2]): 84%
- growth at 100 µM (HT-29): -59%
- GI50 (SNB-19): 4.36 µM
- TGI (SNB-19): 18 µM
- CC50 (SNB-19): 46.1 µM
- growth at 1 µM (TK-10): 107%
- growth at 1 µM (OVCAR-8): 93%
- GI50 (U-251): 1.74 µM
- LC50 (U-251): 7.69 µM
- TGI (U-251): 3.66 µM
- growth at 0.01 µM (IGROV-1 [3]): 106%
- growth at 0.01 µM (SK-OV-3): 88%
- growth at 100 µM (M14): -90%
- growth at 0.1 µM (K562 [4]): 98%
- growth at 0.1 µM (OVCAR-5): 95%
- growth at 0.1 µM (A549): 93%
- growth at 0.01 µM (HCC 2998): 102%
- growth at 1 µM (COLO 205): 98%
- growth at 0.1 µM (NCI-H23 [5]): 103%
- growth at 0.1 µM (SF-268): 101%
- GI50 (BT-549 [6]): 1.5 µM
- LC50 (concentration killing 50% of cells) (BT-549 [6]): 5.77 µM
- TGI (BT-549 [6]): 2.94 µM
- growth at 100 µM (DU-145): -100%
- growth at 0.01 µM (SR): 98%
- growth at 10 µM (IGROV-1 [7]): 24%
- GI50 (786-0): 1.88 µM
- LC50 (786-0): 10.8 µM
- TGI (786-0): 4.39 µM
- growth at 1 µM (IGROV-1 [8]): 100%
- growth at 0.1 µM (IGROV-1 [9]): 106%
- growth at 1 µM (RPMI-8226 [10]): 59%
- growth at 0.1 µM (PC-3): 95%
- GI50 (UO-31): 3.03 µM
- LC50 (UO-31): 43.2 µM
- TGI (UO-31): 13.1 µM
- growth at 1 µM (NCI-H23 [11]): 99%
- growth at 100 µM (SK-MEL-28): -93%
- growth at 10 µM (RPMI-8226 [12]): -20%
- growth at 0.1 µM (SW-620): 97%
- growth at 0.01 µM (CCRF-CEM): 97%
